compound: CC(C)C[C@H](NC(=O)[C@H](CCc1ccccc1)NC(=O)CN1CCOCC1)C(=O)N[C@@H](Cc1ccccc1)C(=O)N[C@@H](CC(C)C)C(=O)[C@@]1(C)CO1 [Carfilzomib] + COc1cc2c(Oc3ccc(NC(=O)C4(C(=O)Nc5ccc(F)cc5)CC4)cc3F)ccnc2cc1OCCCN1CCOCC1 [Foretinib] (partner 0.25 µM); experiment: relative viability (nuclei count vs DMSO), 5 days (fraction); higher = more cells survive; conditions: first compound 0.001 µM
Summary of the method: (§1)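 For relative viability, nuclei counts in treated wells were divided by those in vehicle wells. Lung cancer cell lines had been pin-tool dosed in 1536-well plates the day after seeding and cultured for 5 days, then fixed and stained in one step (final 0.05% Triton X-100, 1% formaldehyde, 1 ug/ml Hoechst) and imaged at 4×. Doses were one drug alone or a fixed anchor-drug dose plus five library-drug doses (not always all listed) in √10 steps, and values are duplicate-plate medians.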

Cell Line | relative viability
LOU-NH91 | 0.934
LU99A | 0.943
LXF-289 | 1
NCI-H23 | 0.873
NCI-H322M | 0.981
NCI-H441 | 0.878
NCI-H460 | 0.97
NCI-H520 | 0.781
NCI-H647 | 1.19
NCI-H661 | 1.05
NCI-H727 | 0.758
NCI-H838 | 1.06
NCI-H1355 | 0.995
NCI-H1437 | 1.29
NCI-H1650 | 1.22
NCI-H1651 | 0.906

Cell Line | relative viability
NCI-H1666 | 0.988
NCI-H1734 | 0.876
NCI-H1755 | 0.954
NCI-H1915 | 1.09
NCI-H1993 | 0.798
NCI-H2009 | 1.25
NCI-H2023 | 0.957
NCI-H2085 | 0.909
NCI-H2087 | 1.03
NCI-H2126 | 1.2
NCI-H2228 | 0.902
NCI-H2347 | 0.958
NCI-H3122 | 0.948
PC-3 [JPC-3] | 1.02
PC-14 | 0.979
RERF-LC-KJ | 0.873

same assay, conditions: first compound 0.003162 µM

Cell Line | relative viability
LOU-NH91 | 1.04
LU99A | 0.772
LXF-289 | 0.945
NCI-H23 | 1.11
NCI-H322M | 1.01
NCI-H441 | 0.977
NCI-H460 | 1.05
NCI-H520 | 0.999
NCI-H647 | 1.33
NCI-H650 | 1.27
NCI-H661 | 1.16
NCI-H727 | 0.891
NCI-H838 | 1.12
NCI-H1355 | 1.07
NCI-H1437 | 1.4
NCI-H1650 | 0.965
NCI-H1651 | 0.762
NCI-H1666 | 0.979

Cell Line | relative viability
NCI-H1734 | 1.06
NCI-H1755 | 0.939
NCI-H1915 | 1.09
NCI-H1975 | 0.859
NCI-H1993 | 0.865
NCI-H2009 | 1.26
NCI-H2023 | 0.896
NCI-H2085 | 0.925
NCI-H2087 | 1.15
NCI-H2126 | 1.3
NCI-H2228 | 0.883
NCI-H2347 | 0.909
NCI-H2405 | 1.06
NCI-H3122 | 0.992
PC-3 [JPC-3] | 1.01
PC-14 | 0.958
RERF-LC-KJ | 0.86

same assay, conditions: first compound 0.01 µM

Cell Line | relative viability
LOU-NH91 | 0.875
LU99A | 0.847
LXF-289 | 0.948
NCI-H23 | 1.09
NCI-H322M | 0.999
NCI-H441 | 0.61
NCI-H460 | 0.988
NCI-H520 | 0.695
NCI-H647 | 1.26
NCI-H650 | 1.03
NCI-H661 | 1.07
NCI-H727 | 0.996
NCI-H838 | 1.15
NCI-H1355 | 1.03
NCI-H1437 | 1.29
NCI-H1650 | 0.954
NCI-H1651 | 0.71
NCI-H1666 | 1.07

Cell Line | relative viability
NCI-H1734 | 0.954
NCI-H1755 | 0.954
NCI-H1915 | 1.05
NCI-H1975 | 0.621
NCI-H1993 | 0.81
NCI-H2009 | 1.21
NCI-H2023 | 0.894
NCI-H2085 | 0.829
NCI-H2087 | 0.693
NCI-H2126 | 1.2
NCI-H2228 | 0.633
NCI-H2347 | 1.43
NCI-H2405 | 1.07
NCI-H3122 | 0.92
PC-3 [JPC-3] | 1.05
PC-14 | 0.996
RERF-LC-KJ | 0.886

same assay, conditions: first compound 0.03162 µM

Cell Line | relative viability
LOU-NH91 | 0.303
LU99A | 0.565
LXF-289 | 0.464
NCI-H23 | 0.188
NCI-H322M | 0.943
NCI-H441 | 0.199
NCI-H460 | 0.75
NCI-H520 | 0.17
NCI-H647 | 0.0352
NCI-H650 | 0.71
NCI-H661 | 1.06
NCI-H727 | 0.617
NCI-H838 | 0.974
NCI-H1355 | 0.714
NCI-H1437 | 1.19
NCI-H1650 | 0.125
NCI-H1651 | 0.112
NCI-H1666 | 0.928

Cell Line | relative viability
NCI-H1734 | 0.401
NCI-H1755 | 0.928
NCI-H1915 | 1.04
NCI-H1975 | 0.0974
NCI-H1993 | 0.778
NCI-H2009 | 0.355
NCI-H2023 | 0.948
NCI-H2085 | 0.249
NCI-H2087 | 0.0563
NCI-H2126 | 1.12
NCI-H2228 | 0.0979
NCI-H2347 | 0.698
NCI-H2405 | 1.07
NCI-H3122 | 0.781
PC-3 [JPC-3] | 0.889
PC-14 | 0.826
RERF-LC-KJ | 0.794

same assay, conditions: first compound 0.1 µM

Cell Line | relative viability
LOU-NH91 | 0.224
LU99A | 0.246
LXF-289 | 0.0789
NCI-H23 | 0.134
NCI-H322M | 0.359
NCI-H441 | 0.349
NCI-H460 | 0.0297
NCI-H520 | 0.203
NCI-H647 | 0.0362
NCI-H650 | 0.174
NCI-H661 | 0.377
NCI-H727 | 0.397
NCI-H838 | 0.131
NCI-H1355 | 0.198
NCI-H1437 | 0.284
NCI-H1650 | 0.321
NCI-H1651 | 0.0981
NCI-H1666 | 0.45

Cell Line | relative viability
NCI-H1734 | 0.105
NCI-H1755 | 0.479
NCI-H1915 | 0.203
NCI-H1975 | 0.104
NCI-H1993 | 0.444
NCI-H2009 | 0.0701
NCI-H2023 | 0.0777
NCI-H2085 | 0.226
NCI-H2087 | 0.0605
NCI-H2126 | 0.48
NCI-H2228 | 0.096
NCI-H2347 | 0.181
NCI-H2405 | 0.305
NCI-H3122 | 0.318
PC-3 [JPC-3] | 0.279
PC-14 | 0.081
RERF-LC-KJ | 0.409

compound: O=C(c1cc(Cc2n[nH]c(=O)c3ccccc23)ccc1F)N1CCN(C(=O)C2CC2)CC1 [Olaparib] + CC(C)C[C@H](NC(=O)[C@H](Cc1ccccc1)NC(=O)c1cnccn1)B(O)O [Bortezomib] (partner 0.002 µM); experiment: as above; conditions: first compound 0.08 µM
Summary of the method: as §1

Cell Line | relative viability
LOU-NH91 | 0.502
LU99A | 1.13
LXF-289 | 1.09
NCI-H23 | 1.28
NCI-H322M | 1.27
NCI-H460 | 1.14
NCI-H520 | 0.788
NCI-H647 | 1.18
NCI-H650 | 0.978
NCI-H661 | 1.06
NCI-H727 | 0.844
NCI-H838 | 0.956
NCI-H1355 | 1.19
NCI-H1437 | 0.504
NCI-H1650 | 0.265
NCI-H1651 | 0.892
NCI-H1666 | 0.771

Cell Line | relative viability
NCI-H1734 | 1.06
NCI-H1755 | 1.03
NCI-H1915 | 0.957
NCI-H1975 | 0.424
NCI-H1993 | 1.06
NCI-H2009 | 1.06
NCI-H2023 | 1.13
NCI-H2085 | 1.25
NCI-H2087 | 0.96
NCI-H2126 | 1.22
NCI-H2228 | 1.02
NCI-H2347 | 1.28
NCI-H2405 | 1.04
NCI-H3122 | 1.01
PC-3 [JPC-3] | 0.991
PC-14 | 1.04
RERF-LC-KJ | 1.19

same assay, conditions: first compound 0.253 µM

Cell Line | relative viability
LOU-NH91 | 0.462
LU99A | 0.96
LXF-289 | 0.941
NCI-H23 | 0.717
NCI-H322M | 1.19
NCI-H441 | 0.175
NCI-H460 | 1.02
NCI-H520 | 0.336
NCI-H647 | 0.942
NCI-H650 | 0.672
NCI-H661 | 0.745
NCI-H727 | 0.829
NCI-H838 | 0.738
NCI-H1355 | 1.14
NCI-H1437 | 0.422
NCI-H1650 | 0.196
NCI-H1651 | 0.901
NCI-H1666 | 0.799

Cell Line | relative viability
NCI-H1734 | 0.835
NCI-H1755 | 0.92
NCI-H1915 | 0.758
NCI-H1975 | 0.364
NCI-H1993 | 1.16
NCI-H2009 | 0.953
NCI-H2023 | 0.884
NCI-H2085 | 0.92
NCI-H2087 | 0.753
NCI-H2126 | 0.994
NCI-H2228 | 0.821
NCI-H2347 | 0.715
NCI-H2405 | 0.914
NCI-H3122 | 0.985
PC-3 [JPC-3] | 0.692
PC-14 | 0.892
RERF-LC-KJ | 1.14

same assay, conditions: first compound 2.53 µM

Cell Line | relative viability
LOU-NH91 | 0.512
LU99A | 0.726
LXF-289 | 1.03
NCI-H23 | 0.581
NCI-H322M | 1.2
NCI-H441 | 0.489
NCI-H460 | 0.891
NCI-H520 | 0.671
NCI-H647 | 0.864
NCI-H650 | 0.561
NCI-H661 | 0.703
NCI-H727 | 0.709
NCI-H838 | 0.771
NCI-H1355 | 1.15
NCI-H1437 | 0.529
NCI-H1650 | 0.232
NCI-H1651 | 0.781
NCI-H1666 | 0.633

Cell Line | relative viability
NCI-H1734 | 0.91
NCI-H1755 | 0.921
NCI-H1915 | 0.792
NCI-H1975 | 0.403
NCI-H1993 | 1.06
NCI-H2009 | 0.914
NCI-H2023 | 0.931
NCI-H2085 | 0.981
NCI-H2087 | 0.842
NCI-H2126 | 1.07
NCI-H2228 | 1.02
NCI-H2347 | 0.974
NCI-H2405 | 1.01
NCI-H3122 | 0.993
PC-3 [JPC-3] | 0.852
PC-14 | 0.78
RERF-LC-KJ | 1.03

same assay, conditions: first compound 8 µM

Cell Line | relative viability
LOU-NH91 | 0.394
LU99A | 0.626
LXF-289 | 0.992
NCI-H23 | 0.482
NCI-H322M | 1.24
NCI-H441 | 0.382
NCI-H460 | 0.277
NCI-H520 | 0.209
NCI-H647 | 0.416
NCI-H650 | 0.516
NCI-H661 | 0.582
NCI-H727 | 0.514
NCI-H838 | 0.9
NCI-H1355 | 1.12
NCI-H1437 | 0.424
NCI-H1650 | 0.197
NCI-H1651 | 0.451

Cell Line | relative viability
NCI-H1666 | 0.65
NCI-H1734 | 0.614
NCI-H1755 | 0.893
NCI-H1915 | 0.645
NCI-H1975 | 0.319
NCI-H1993 | 1.18
NCI-H2009 | 0.638
NCI-H2023 | 0.675
NCI-H2085 | 0.808
NCI-H2087 | 0.66
NCI-H2126 | 1.08
NCI-H2228 | 0.661
NCI-H2347 | 0.676
NCI-H2405 | 0.934
NCI-H3122 | 0.947
PC-3 [JPC-3] | 0.846
PC-14 | 0.682
